Species: Rattus norvegicus
Assay: Open TG-GATES - Regimen: Single
Type: toxicity, organism-based, Sprague-Dawley
Parameters: regimen Single, gender Male, age 6 weeks
Conditions: in vivo, po, 0 mg/kg, route gavage, dose level Control; for APTT / Bas / Eos / Fbg / Hb / Ht / Lym / MCH / MCHC / MCV / Mono / Neu / PT / Plat / RBC / Ret / WBC: tissue Blood; for KIDNEY_L / KIDNEY_R / KIDNEY_TOTAL: tissue Kidney; for LIVER: tissue Liver; for A/G / ALP / ALT / AST / BUN / CRE / Ca / Cl / DBIL / GLC / IP / K / LDH / Na / PL / RALB / TBIL / TC / TG / TP / gamma-GTP: tissue Plasma

For `C[C@](N)(Cc1ccc(O)c(O)c1)C(=O)O` [METHYLDOPA], the TERMINAL_BW (3 h) was 189.8 g, the APTT (3 h) was 16.9 s and the Bas (3 h) was 0%. For the same molecule, the Eos (3 h) was 0.8%, the Fbg (3 h) was 253.4 mg/dL and the Hb (3 h) was 13.1 g/dL. It also gave a Ht (3 h) of 39.1%, a Lym (3 h) of 75% and an MCH (3 h) of 22.2 pg. The MCHC (3 h) was 33.4%, the MCV (3 h) was 66.5 fL and the Mono (3 h) was 3.2%. For the same molecule, the Neu (3 h) was 20.4%, the PT (3 h) was 12.3 s and the Plat (3 h) was 118.6 x10_4/uL. It also gave an RBC (3 h) of 588.6 x10_4/ul, a Ret (3 h) of 11% and a WBC (3 h) of 80.9 x10_2/uL. It also gave a KIDNEY_L (3 h) of 0.8 g, a KIDNEY_R (3 h) of 0.8 g and a KIDNEY_TOTAL (3 h) of 1.6 g. For the same molecule, the LIVER (3 h) was 8 g, the A/G (3 h) was 0.9 and the ALP (3 h) was 1671.4 IU/L. It also gave an ALT (3 h) of 54.6 IU/L, an AST (3 h) of 84.8 IU/L and a BUN (3 h) of 10 mg/dL. It also gave a CRE (3 h) of 0.2 mg/dL, a Ca (3 h) of 11.6 mg/dL and a Cl (3 h) of 106.8 meq/L. The DBIL (3 h) was 0.022 mg/dL, the GLC (3 h) was 164.4 mg/dL and the IP (3 h) was 9.4 mg/dL. For the same molecule, the K (3 h) was 4.6 meq/L, the LDH (3 h) was 61.2 IU/L and the Na (3 h) was 141.8 meq/L. It also gave a PL (3 h) of 147.2 mg/dL, an RALB (3 h) of 2.6 g/dL and a TBIL (3 h) of 0.08 mg/dL. It also gave a TC (3 h) of 88 mg/dL, a TG (3 h) of 68.4 mg/dL and a TP (3 h) of 5.6 g/dL. For the same molecule, the gamma-GTP (3 h) was 1.2 IU/L, the TERMINAL_BW (6 h) was 187.9 g and the APTT (6 h) was 17 s. For the same molecule, the Bas (6 h) was 0%, the Eos (6 h) was 1% and the Fbg (6 h) was 266.8 mg/dL. The Hb (6 h) was 13.4 g/dL, the Ht (6 h) was 40.1% and the Lym (6 h) was 70.4%. For the same molecule, the MCH (6 h) was 21.6 pg, the MCHC (6 h) was 33.5% and the MCV (6 h) was 64.5 fL. The Mono (6 h) was 3.8%, the Neu (6 h) was 24.4% and the PT (6 h) was 12.4 s. It also gave a Plat (6 h) of 120.7 x10_4/uL, an RBC (6 h) of 622.2 x10_4/ul and a Ret (6 h) of 9.7%. The WBC (6 h) was 82.2 x10_2/uL, the KIDNEY_L (6 h) was 0.8 g and the KIDNEY_R (6 h) was 0.8 g. It also gave a KIDNEY_TOTAL (6 h) of 1.6 g, an LIVER (6 h) of 7.3 g and an A/G (6 h) of 0.9. It also gave an ALP (6 h) of 1652.4 IU/L, an ALT (6 h) of 45.8 IU/L and an AST (6 h) of 74 IU/L. It also gave a BUN (6 h) of 8.4 mg/dL, a CRE (6 h) of 0.2 mg/dL and a Ca (6 h) of 11.2 mg/dL. The Cl (6 h) was 109 meq/L, the DBIL (6 h) was 0.014 mg/dL and the GLC (6 h) was 177.6 mg/dL. The IP (6 h) was 10.6 mg/dL, the K (6 h) was 4.6 meq/L and the LDH (6 h) was 54.2 IU/L. For the same molecule, the Na (6 h) was 143.4 meq/L, the PL (6 h) was 128.4 mg/dL and the RALB (6 h) was 2.6 g/dL. The TBIL (6 h) was 0.076 mg/dL, the TC (6 h) was 81.2 mg/dL and the TG (6 h) was 43 mg/dL. The TP (6 h) was 5.6 g/dL, the gamma-GTP (6 h) was 1.2 IU/L and the TERMINAL_BW (9 h) was 189.5 g. For the same molecule, the APTT (9 h) was 17.4 s, the Bas (9 h) was 0% and the Eos (9 h) was 1%. The Fbg (9 h) was 242 mg/dL, the Hb (9 h) was 12.7 g/dL and the Ht (9 h) was 37.7%. The Lym (9 h) was 75.4%, the MCH (9 h) was 21.7 pg and the MCHC (9 h) was 33.7%. For the same molecule, the MCV (9 h) was 64.2 fL, the Mono (9 h) was 2.4% and the Neu (9 h) was 20.8%. For the same molecule, the PT (9 h) was 13.6 s, the Plat (9 h) was 112.1 x10_4/uL and the RBC (9 h) was 588.8 x10_4/ul. The Ret (9 h) was 10.4%, the WBC (9 h) was 74.2 x10_2/uL and the KIDNEY_L (9 h) was 0.8 g. The KIDNEY_R (9 h) was 0.8 g, the KIDNEY_TOTAL (9 h) was 1.7 g and the LIVER (9 h) was 6.9 g. It also gave an A/G (9 h) of 0.9, an ALP (9 h) of 1737.2 IU/L and an ALT (9 h) of 44.4 IU/L. It also gave an AST (9 h) of 77.2 IU/L, a BUN (9 h) of 10.2 mg/dL and a CRE (9 h) of 0.1 mg/dL. The Ca (9 h) was 10.9 mg/dL, the Cl (9 h) was 108.2 meq/L and the DBIL (9 h) was 0.014 mg/dL. The GLC (9 h) was 182.6 mg/dL, the IP (9 h) was 11 mg/dL and the K (9 h) was 4.4 meq/L. For the same molecule, the LDH (9 h) was 88 IU/L, the Na (9 h) was 143.2 meq/L and the PL (9 h) was 114.8 mg/dL. The RALB (9 h) was 2.4 g/dL, the TBIL (9 h) was 0.076 mg/dL and the TC (9 h) was 74.4 mg/dL. It also gave a TG (9 h) of 30.6 mg/dL, a TP (9 h) of 5.1 g/dL and a gamma-GTP (9 h) of 1.2 IU/L. It also gave a TERMINAL_BW (24 h) of 194.8 g, an APTT (24 h) of 17 s and a Bas (24 h) of 0%. It also gave an Eos (24 h) of 1%, a Fbg (24 h) of 237.6 mg/dL and a Hb (24 h) of 13 g/dL. The Ht (24 h) was 38.2%, the Lym (24 h) was 75.8% and the MCH (24 h) was 22 pg. The MCHC (24 h) was 34.1%, the MCV (24 h) was 64.4 fL and the Mono (24 h) was 3.4%. It also gave a Neu (24 h) of 19.4%, a PT (24 h) of 12.8 s and a Plat (24 h) of 113.1 x10_4/uL. It also gave an RBC (24 h) of 594.4 x10_4/ul, a Ret (24 h) of 9.5% and a WBC (24 h) of 77.2 x10_2/uL. For the same molecule, the KIDNEY_L (24 h) was 0.9 g, the KIDNEY_R (24 h) was 0.9 g and the KIDNEY_TOTAL (24 h) was 1.8 g. It also gave an LIVER (24 h) of 8.8 g, an A/G (24 h) of 0.9 and an ALP (24 h) of 1858.4 IU/L. For the same molecule, the ALT (24 h) was 55.2 IU/L, the AST (24 h) was 83 IU/L and the BUN (24 h) was 13 mg/dL. For the same molecule, the CRE (24 h) was 0.2 mg/dL, the Ca (24 h) was 11 mg/dL and the Cl (24 h) was 107.2 meq/L. It also gave a DBIL (24 h) of 0.008 mg/dL, a GLC (24 h) of 183.6 mg/dL and an IP (24 h) of 7.8 mg/dL. It also gave a K (24 h) of 4.3 meq/L, an LDH (24 h) of 69.8 IU/L and a Na (24 h) of 142 meq/L. For the same molecule, the PL (24 h) was 128.6 mg/dL, the RALB (24 h) was 2.5 g/dL and the TBIL (24 h) was 0.062 mg/dL. The TC (24 h) was 72.6 mg/dL, the TG (24 h) was 58.2 mg/dL and the TP (24 h) was 5.3 g/dL. It also gave a gamma-GTP (24 h) of 1 IU/L.

From ChEMBL document CHEMBL3885861, “Open TG-GATES”
